Experimental data as given in PubChem BioAssay (NCI).
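Dose response: 5 concentrations. Exposure: 48 h. Format: 96-well plates. Endpoint: linear interpolation; highest concentration if not reached. GI50 marks 50% less growth. The concentration for full growth arrest is given as TGI.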

Assays:
Assay in all cases: DTP human tumour cell line panel, 48 h
[1] = test system: SK-OV-3 ovarian
[2] = test system: NCI-H522 lung
[3] = test system: HCT-15 colon
[4] = test system: OVCAR-8 ovarian
[5] = test system: A549 NSCLC
[6] = test system: KM12 colon
[7] = test system: IGROV1 ovarian

Compound: COC(=O)C(C(=O)C(N)=O)c1csc(-n2nc(-c3ccccc3)cc2-c2ccccc2)n1 (stereo not drawn)
- TGI [1]: > 31.6 µM
- TGI [2]: > 31.6 µM
- TGI [3]: > 31.6 µM
- TGI [4]: > 31.6 µM
- TGI [5]: > 31.6 µM
- TGI [6]: > 31.6 µM
- TGI [7]: > 31.6 µM

Compound: [CH3][Sn]1([CH3])[O]CC(COc2cc(Cl)c(Cl)cc2Cl)[O]1 (stereo not drawn)
- GI50 [1]: 85.6 µM
- TGI [1]: > 100 µM
- GI50 [2]: 16.8 µM
- TGI [2]: 36.3 µM
- GI50 [3]: > 100 µM
- TGI [3]: > 100 µM
- GI50 [4]: > 100 µM
- TGI [4]: > 100 µM
- GI50 [5]: 83.6 µM
- TGI [5]: > 100 µM
- GI50 [6]: 45.8 µM
- TGI [6]: > 100 µM
- GI50 [7]: 70.3 µM
- TGI [7]: > 100 µM

Compound: CC(=O)NC(CCCN(Cc1ccccc1)C(=O)N(C)N=O)C(=O)NCc1ccccc1 (stereo not drawn)
- TGI [1]: > 100 µM
- TGI [2]: > 100 µM
- TGI [3]: > 100 µM
- TGI [4]: > 100 µM
- TGI [5]: > 100 µM
- TGI [6]: > 100 µM
- TGI [7]: > 100 µM

Compound: Cc1ccc2nc(NC(=O)C(=O)CC(=O)c3cccc4ccccc34)sc2c1
- TGI [1]: 36.6 µM
- TGI [3]: > 100 µM
- TGI [4]: 56.7 µM
- TGI [5]: > 100 µM
- TGI [6]: > 100 µM
- TGI [7]: > 100 µM

Compound: Cc1noc(/N=C2\C=C(Nc3onc(C)c3C)C(=O)c3ccccc32)c1C
- TGI [1]: > 100 µM
- TGI [3]: > 100 µM
- TGI [4]: > 100 µM
- TGI [5]: > 100 µM
- TGI [6]: > 100 µM
- TGI [7]: > 100 µM

Compound: CC(=O)OC(=O)O/C=C\CCl
- TGI [1]: > 100 µM
- TGI [2]: 33.1 µM
- TGI [3]: > 100 µM
- TGI [4]: > 100 µM
- TGI [5]: > 100 µM
- TGI [6]: > 100 µM
- TGI [7]: > 100 µM

Compound: COC(=O)C(=O)C(C(=O)C(=O)Nc1cc(Cl)c(Cl)cc1Cl)c1nc2ccc([N+](=O)[O-])cc2[nH]c1=O (stereo not drawn)
- TGI [1]: > 100 µM
- TGI [2]: > 100 µM
- TGI [3]: > 100 µM
- TGI [4]: > 100 µM
- TGI [5]: > 100 µM
- TGI [6]: > 100 µM
- TGI [7]: > 100 µM

Compound: CCc1cc(Cc2ccc(C)c(NC(=O)C(=O)C3C(=O)NC(=O)NC3=O)c2CC)cc(C)c1NC(=O)C(=O)C1C(=O)NC(=O)NC1=O
- TGI [1]: > 100 µM
- TGI [2]: > 100 µM
- TGI [3]: > 100 µM
- TGI [4]: > 100 µM
- TGI [5]: > 100 µM
- TGI [6]: > 100 µM
- TGI [7]: > 100 µM

Compound: CC1=CC(=O)NP(=O)(C23CC4CC(CC(C4)C2)C3)N1 (stereo not drawn)
- TGI [1]: > 100 µM
- TGI [2]: > 100 µM
- TGI [3]: > 100 µM
- TGI [4]: > 100 µM
- TGI [6]: > 100 µM
- TGI [7]: > 100 µM

Compound: O=CCCCC(Sc1ccccc1)Sc1ccccc1
- TGI [1]: 59.4 µM
- TGI [2]: > 100 µM
- TGI [3]: 33.2 µM
- TGI [4]: 35.8 µM
- TGI [5]: > 100 µM
- TGI [6]: > 100 µM
- TGI [7]: 50.5 µM

Compound: COc1ccc2c(c1)c1c3n2CCNN=C3CCC1
- TGI [1]: > 100 µM
- TGI [2]: > 100 µM
- TGI [3]: > 100 µM
- TGI [4]: > 100 µM
- TGI [5]: > 100 µM
- TGI [6]: > 100 µM
- TGI [7]: > 100 µM

Compound: CCCCCCCCCCCCCCCCCC(=O)NCC(COP(=O)(O)O)OCC (stereo not drawn)
- TGI [1]: > 100 µM
- TGI [2]: > 100 µM
- TGI [4]: > 100 µM
- TGI [5]: > 100 µM
- TGI [6]: 58.3 µM
- TGI [7]: > 100 µM

Compound: COc1ccc(C)cc1C1CCC(=O)O1 (stereo not drawn)
- TGI [1]: > 100 µM
- TGI [2]: > 100 µM
- TGI [3]: > 100 µM
- TGI [4]: > 100 µM
- TGI [5]: > 100 µM
- TGI [6]: > 100 µM
- TGI [7]: > 100 µM

Compound: C/C(CC(=O)Nc1cccc([N+](=O)[O-])c1)=N\NC(=O)CC#N
- TGI [1]: > 100 µM
- TGI [2]: > 100 µM
- TGI [4]: > 100 µM
- TGI [5]: > 100 µM
- TGI [6]: > 100 µM
- TGI [7]: > 100 µM

Compound: CC(=O)c1c2c(cc3c1CC1(C3)Cc3cc4c(c(C(=O)O)c3C1)CCC4)CCC2 (stereo not drawn)
- TGI [2]: 42.3 µM
- TGI [4]: > 100 µM
- TGI [5]: > 100 µM
- TGI [6]: > 100 µM
- TGI [7]: > 100 µM

Compound: O=C1CCC(=O)c2sccc2N1
- TGI [1]: > 100 µM
- TGI [2]: > 100 µM
- TGI [3]: > 100 µM
- TGI [4]: > 100 µM
- TGI [5]: > 100 µM
- TGI [6]: > 100 µM
- TGI [7]: > 100 µM

Compound: O=C(/C=C/C1C(=O)NC(=O)NC1=O)CC(=O)C(=O)Nc1cc(Cl)c(Cl)cc1Cl
- TGI [1]: > 100 µM
- TGI [2]: > 100 µM
- TGI [3]: > 100 µM
- TGI [4]: > 100 µM
- TGI [5]: > 100 µM
- TGI [6]: > 100 µM
- TGI [7]: > 100 µM

Compound: O=C1C=Cc2ncccc2C1=O
- TGI [1]: > 61.7 µM
- TGI [2]: 29.7 µM
- TGI [3]: 33.5 µM
- TGI [4]: 30.2 µM
- TGI [5]: > 67.6 µM
- TGI [6]: > 58.5 µM
- TGI [7]: > 58.3 µM

Compound: CC(=O)[C-](C(C)=O)c1ccccc1.CC(=O)[C-](C(C)=O)c1ccccc1.CC(=O)[C-](C(C)=O)c1ccccc1.[Cl-].[Zr+4]
- GI50 [1]: > 100 µM
- TGI [1]: > 100 µM
- GI50 [2]: > 100 µM
- TGI [2]: > 100 µM
- GI50 [3]: > 100 µM
- TGI [3]: > 100 µM
- GI50 [4]: 57.5 µM
- TGI [4]: > 100 µM
- GI50 [5]: > 100 µM
- TGI [5]: > 100 µM
- GI50 [6]: > 100 µM
- TGI [6]: > 100 µM
- GI50 [7]: > 100 µM
- TGI [7]: > 100 µM

Compound: C#CCOCn1cnc2ncnc(N)c21
- TGI [1]: > 100 µM
- TGI [2]: > 100 µM
- TGI [4]: > 100 µM
- TGI [5]: > 100 µM
- TGI [6]: > 100 µM
- TGI [7]: > 100 µM

Compound: c1ccc(-c2ccnc3c2ccc2c(-c4ccccc4)ccnc23)cc1
- TGI [1]: 11.6 µM
- TGI [2]: 5.92 µM
- TGI [4]: 4.75 µM
- TGI [5]: 8.71 µM
- TGI [6]: 10.2 µM
- TGI [7]: 18.2 µM

Compound: COc1ccc(NC(=O)C2C(=O)N(c3ccc(OC)cc3)C(=O)/C2=N\NC(N)=O)cc1 (stereo not drawn)
- TGI [1]: 49 µM
- TGI [2]: > 100 µM
- TGI [3]: > 100 µM
- TGI [4]: 34.6 µM
- TGI [6]: 43.2 µM
- TGI [7]: 45 µM
